Results reported in paper PMC9704079, “Enhancement of the anticancer effect of atorvastatin-loaded nanoemulsions by improving oral absorption via multivalent intestinal transporter-targeting lipids” (Drug Delivery, 2022).

Key:
[1] = test system: MCF-7 (human breast adenocarcinoma) cells; format: cell-based; conditions: 24 h
Method: (§1) After incubation for 1 h, the absorbance at 450 nm was measured and the percentage of viable cells was calculated by comparison with the absorbance of untreated cells (100% viability).

[2] = test system: 4T1 (murine stage IV breast cancer) cells; format: cell-based; conditions: mouse, 24 h
Method: as §1

[3] = test system: 4T1 cells; test: In vitro 4T1 cell migration assay; format: cell-based, murine; conditions: Mus musculus, 4T1, 24 h; read-out: Inhibition of 4T1 cell migration compared with untreated controls
Method: (§2) The in vitro inhibition of 4T1 cell invasion and migration by ATV-NEs was assessed by Cultrex® 24-well basement membrane extract cell invasion assays (Trevigen, Inc., Gaithersburg, MD, USA). Briefly, the membrane insert in each well was uniformly coated with 100 µL of 0.5× basement membrane extract and incubated for 24 h at 37 °C. Separately, uncoated wells were used for cell migration assays. Next, each coated well was washed using 1× buffer. For invasion assays, the cells in Roswell Park Memorial Institute medium with 0.5% FBS were seeded into each apical chamber at a density of 1 × 10^6 cells/well. For cell migration assays, the same number of cells was seeded in the uncoated apical compartment. Subsequently, 500 µL of Roswell Park Memorial Institute medium containing 10% FBS were loaded into the basal compartment to serve as a chemoattractant; the cells were then cultured at 37 °C. After incubation for 24 h, both apical and basal compartments were washed with 1× buffer and the basal chamber was filled with 500 µL of cell dissociation solution (calcein-AM); the cells were incubated for 1 h at 37 °C. Finally, the dissolved calcein-AM concentration was measured with a fluorescence reader at an excitation wavelength of 485 nm and emission wavelength of 520 nm.

[4] = test system: 4T1 cells; test: In vitro 4T1 cell adhesion to ECM components; format: cell-based, murine; conditions: 100 µg/mL ATV, 1.5 h; fibronectin, collagen I, collagen IV, laminin I, fibrinogen
Method: After incubation for 1.5 h at 37 °C, the cells were washed with PBS (pH 7.4) and stained by incubation for 10 min with the dye included in the kit. Then, each well was gently washed five times with 500 µL of sterilized water; 200 µL of extraction solution were added to each well, and the cells were incubated for 10 min in an orbital shaker. Finally, change in color was measured with a plate reader at 560 nm; inhibition of adhesion in the drug-treated cells was evaluated relative to inhibition in the untreated cells (control).

[5] = test system: 4T1 cells; test: In vitro 4T1 cell invasion assay; format: cell-based, murine; conditions: 100 µg/mL ATV, 24 h
Method: as §2

[6] = test system: 4T1 cell tumor; test: In vivo tumor growth inhibition in 4T1 cell tumor-bearing mice; parameters: species or system BALB/c mice
Method: To evaluate the in vivo antitumor efficacy of oral ATV-NEs, 1 × 10^6 4T1 cells dispersed in 100 μL of PBS (pH 7.4) were subcutaneously inoculated into the left flanks of BALB/c mice. […] To assess tumor growth suppression, the tumor size and body weight of the mice in all groups were measured every 3 days after treatment. The tumor volume in each mouse was calculated as (width)^2 × length × 0.52. After 21 days of treatment, mice were sacrificed and tumor masses were measured.

Structure (SMILES): CC(C)c1c(C(=O)Nc2ccccc2)c(-c2ccccc2)c(-c2ccc(F)cc2)n1CC[C@@H](O)C[C@@H](O)CC(=O)O [ATV in 0.5% DMSO, Atorvastatin]
- Concentration at which cytotoxic effects were exhibited [1]: > 100 µg/mL ATV
- Concentration at which cytotoxic effects were exhibited [2]: > 100 µg/mL ATV
- inhibition at 100 µg/mL [3]: 20.3%
- 4T1 cell adhesion to ECM components (in words) [4]: significantly decreased adhesion
- Decrease in 4T1 cell invasion compared with untreated controls [5]: 31.9%

Structure (SMILES): CC(C)c1c(C(=O)Nc2ccccc2)c(-c2ccccc2)c(-c2ccc(F)cc2)n1CC[C@@H](O)C[C@@H](O)CC(=O)O [ATV in 10% DMF, Atorvastatin]
- Tumor growth compared to untreated controls (in words) ([6]; daily oral, 40 mg/kg ATV in 10% DMF, 21 days): did not inhibit tumor growth

Structure (SMILES): CC(C)c1c(C(=O)Nc2ccccc2)c(-c2ccccc2)c(-c2ccc(F)cc2)n1CC[C@@H](O)C[C@@H](O)CC(=O)O [ATV-IP, Atorvastatin]
- Tumor growth inhibition compared to controls ([6]; once-daily IP, 5 mg/kg ATV in 10% DMF, 21 days): 30.4%
- Tumor growth inhibition compared to controls ([6]; once-daily IP, 10 mg/kg ATV in 10% DMF, 21 days): 52.5%
- Isolated tumor mass reduction compared to controls ([6]; once-daily IP, 10 mg/kg ATV in 10% DMF, day 21): 73.8%
